Activity calls are given as the source filed them. The calls are words filed in the database; no cut-off is given here.
Tests used:
[1] = biological target: T1, Protein cereblon/Signal transducer and activator of transcription 1-alpha/beta (Homo sapiens) (UniProt P42224+Q96SW2); test: PROTAC activity at STAT1/CRBN in human MV4-11 cells assessed as reduction in STAT1 level at upto 10 uM incubated for 12 hrs by Western blot analysis; assay type: cell-based
[2] = biological target: T2, Protein cereblon/Signal transducer and activator of transcription 5A/Signal transducer and activator of transcription 5B (Homo sapiens) (UniProt P42229+P51692+Q96SW2); test: PROTAC activity at STAT5 at residue Y694/CRBN in human MV4-11 cells assessed as reduction in STAT5 level at upto 10 uM incubated for 12 hrs by Western blot analysis; assay type: cell-based
[3] = biological target: T3, Protein cereblon/Signal transducer and activator of transcription 2 (Homo sapiens) (UniProt Q96SW2+P52630); test: PROTAC activity at STAT2/CRBN in human MV4-11 cells assessed as reduction in STAT2 level at 10 uM incubated for 12 hrs by Western blot analysis relative to control; assay type: cell-based
[4] = biological target: T3, Protein cereblon/Signal transducer and activator of transcription 2 (Homo sapiens); test: PROTAC activity at STAT2/CRBN in human PBMC cells assessed as reduction in STAT2 level at 10 uM incubated for 18 hrs by Western blot analysis relative to control; assay type: cell-based
[5] = biological target: T4, Protein cereblon/Signal transducer and activator of transcription 6 (Homo sapiens, UniProt P42226+Q96SW2); test: PROTAC activity at STAT6 at Y641 residue/CRBN in human L-1236 cells assessed as reduction in STAT6 level incubated for 24 hrs by Western blot analysis; assay type: cell-based; details: dose 10.0 µM
[6] = biological target: T2, Protein cereblon/Signal transducer and activator of transcription 5A/Signal transducer and activator of transcription 5B (Homo sapiens); test: PROTAC activity at STAT5/CRBN in human L-1236 cells assessed as reduction in STAT5 level at 10 uM incubated for 24 hrs by Western blot analysis; assay type: cell-based
[7] = biological target: T1, Protein cereblon/Signal transducer and activator of transcription 1-alpha/beta (Homo sapiens); test: PROTAC activity at STAT1/CRBN in human L-1236 cells assessed as reduction in STAT1 level at 10 uM incubated for 24 hrs by Western blot analysis; assay type: cell-based
[8] = biological target: Protein cereblon/Signal transducer and activator of transcription 4 (Homo sapiens) (UniProt Q96SW2+Q14765); test: PROTAC activity at STAT4/CRBN in human L-1236 cells assessed as reduction in STAT4 level at 10 uM incubated for 24 hrs by Western blot analysis; assay type: cell-based
[9] = test system: PBMC; test: Downregulation of STAT2 level in human PBMC cells at 5 uM incubated for 18 hrs by Western blot analysis relative to control; assay type: functional, cell-based
[10] = test system: PBMC; test: Downregulation of STAT5 level in human PBMC cells at 5 uM incubated for 18 hrs by Western blot analysis relative to control; assay type: functional, cell-based
[11] = biological target: T4, Protein cereblon/Signal transducer and activator of transcription 6; test: PROTAC activity at STAT6/CRBN in human MV4-11 cells assessed as reduction in STAT6 level at 2 uM by HiBiT bioluminescence assay; assay type: cell-based; details: time <= 1200.0 min
[12] = Metabolic stability in human liver microsome assessed as parent compound remaining measured at 45 mins in presence of NADPH by LC-MS/MS analysis; assay type: ADME; details: liver microsomes, read-out: Stability
[13] = Metabolic stability in monkey liver microsome assessed as parent compound remaining measured at 15 mins in presence of NADPH by LC-MS/MS analysis; assay type: ADME, Macaca mulatta; details: rhesus monkey, liver microsomes, read-out: Stability
[14] = Metabolic stability in rat liver microsome assessed as parent compound remaining measured at 5 mins in presence of NADPH by LC-MS/MS analysis; assay type: ADME; details: liver microsomes, read-out: Stability
[15] = Metabolic stability in rat liver microsome assessed as parent compound remaining measured at 15 mins in presence of NADPH by LC-MS/MS analysis; assay type: ADME; details: liver microsomes, read-out: Stability
[16] = Metabolic stability in rat liver microsome assessed as parent compound remaining measured at 30 mins in presence of NADPH by LC-MS/MS analysis; assay type: ADME; details: liver microsomes, read-out: Stability
[17] = Metabolic stability in mouse liver microsome assessed as parent compound remaining measured at 15 mins in presence of NADPH by LC-MS/MS analysis; assay type: ADME; details: liver microsomes, read-out: Stability
[18] = Metabolic stability in mouse liver microsome assessed as parent compound remaining measured at 45 mins in presence of NADPH by LC-MS/MS analysis; assay type: ADME; details: liver microsomes, read-out: Stability
[19] = Metabolic stability in dog liver microsome assessed as half life measured upto 60 mins in presence of NADPH by LC-MS/MS analysis; assay type: ADME, Canis lupus familiaris; details: liver microsomes
[20] = Stability in monkey plasma assessed as parent compound remaining measured at 30 mins by LC-MS/MS analysis; assay type: ADME, cell-free, Macaca mulatta; details: rhesus monkey, read-out: Stability
[21] = Stability in rat plasma assessed as parent compound remaining measured at 5 mins by LC-MS/MS analysis; assay type: ADME, cell-free; details: read-out: Stability
[22] = Stability in rat plasma assessed as parent compound remaining measured at 120 mins by LC-MS/MS analysis; assay type: ADME, cell-free; details: read-out: Stability
[23] = Stability in mouse plasma assessed as parent compound remaining measured at 5 mins by LC-MS/MS analysis; assay type: ADME, cell-free; details: read-out: Stability
[24] = Stability in rat plasma assessed as half life measured upto 60 mins by LC-MS/MS analysis; assay type: ADME, cell-free
[25] = biological target: T5, Protein cereblon/Signal transducer and transcription activator 6 (Mus musculus) (UniProt P52633+Q8C7D2); test: In vivo PROTAC activity at STAT6/CRBN in BALB/c mouse assessed as reduction in STAT6 level in lung at 200 mg/kg, ip measured at 2 hrs by Western blot analysis; assay type: functional, organism-based; set-up: scale not given: the % may be the effect or the level left
[26] = biological target: T5, Protein cereblon/Signal transducer and transcription activator 6 (Mus musculus); test: In vivo PROTAC activity at STAT6/CRBN in BALB/c mouse assessed as reduction in STAT6 level in lung at 200 mg/kg, ip measured at 6 hrs by Western blot analysis; assay type: functional, organism-based; set-up: scale not given: the % may be the effect or the level left
[27] = biological target: T5, Protein cereblon/Signal transducer and transcription activator 6 (Mus musculus); test: In vivo PROTAC activity at STAT6/CRBN in BALB/c mouse assessed as reduction in STAT6 level in lung at 200 mg/kg, ip measured at 24 hrs by Western blot analysis; assay type: functional, organism-based; set-up: scale not given: the % may be the effect or the level left

CC(C)(C)[C@H](NC(=O)c1cc2cc(C(F)(F)P(=O)(O)O)ccc2s1)C(=O)N1C[C@@H](OCCCCCC#Cc2cccc3c2CN(C2CCC(=O)NC2=O)C3=O)C[C@H]1C(=O)N1CCO[C@H](c2ccccc2)C1 (some centres not stated)
Activity [1]: No effect | Activity [2]: No effect | Emax [3]: < 40% | Activity [4]: No effect | Activity [5]: Dose-dependent-effect | Activity [6]: No effect | Activity [7]: No effect | Activity [8]: No effect | Activity [9]: inactive | Activity [10]: inactive | Activity [11]: Time-dependent-effect | remaining at 0.75 h [12]: 91% | remaining at 0.25 h [13]: 83% | remaining at 5 min [14]: 99% | remaining at 0.25 h [15]: 98% | remaining at 0.5 h [16]: 96% | remaining at 0.25 h [17]: 98% | remaining at 0.75 h [18]: 92% | half-life [19]: > 2 h | remaining at 0.5 h [20]: 91% | remaining at 5 min [21]: 86% | remaining at 2 h [22]: 67% | remaining at 5 min [23]: 102% | half-life [24]: > 2 h | Activity [25]: > 70% | Activity [26]: > 90% | Activity [27]: > 70%
